Data taken from PMC12040169 (PLOS Biology, 2025).

experiment: in vitro; conditions: human, hela cells, % viability

Compound | viability at 28.5 h, 10 µM
Cc1cc(C)c(NC(N)=O)c(C)c1 [CBK086399] | 105%
CCOC(=O)C1=C(C)NC(=O)NC1c1cccs1 (centres unmarked) [CBK086430] | 78%
O=C(CN1CCOCC1)Nc1ccc(Cl)cc1C(=O)c1ccccc1 [CBK086450] | 95.9%
CCSc1nc(N)cc(O)n1 [CBK086474] | 90.5%
Cc1cc2nc(-c3ccccc3)[nH]c2cc1C [CBK086484] | 80.1%
OCCCNC(=S)Nc1ccc(Br)cc1Cl [CBK086487] | 82.3%
CC1=CCC2C(=O)N(c3ccccc3)C(=O)C2C1 (centres unmarked) [CBK086490] | 84.1%
O=C1COCC(=O)N1c1ccc(I)cc1 [CBK086499] | 87.5%
CC(C)(CC(=O)O)CC(=O)Nc1ccc(Cl)c(Cl)c1 [CBK086500] | 92.6%
Cc1onc(-c2c(Cl)cccc2Cl)c1N(C)C(=O)N1CCCCC1 [CBK086555] | 109%
CC(C)(C)OC(=O)NC1CCN(C(=O)Nc2ccc(OCc3ccccc3)cc2)CC1 [CBK086602] | 98.4%
O=C1NC2(CCNCC2)Oc2ccc(-c3cccnc3)cc21 [CBK086611] | 95.4%
CCOC(=O)c1cnc(SC)nc1NCCc1c[nH]cn1 [CBK086623] | 92.6%
O=C(NCc1ccccc1)c1ccco1 [CBK086713] | 118%
Cc1cc(OCC(O)CN(Cc2ccccc2)C(C)(C)C)ccc1[N+](=O)[O-] (centres unmarked) [CBK086757] | 99.6%
Cc1ccccc1C(=O)Nc1ccc(S(=O)(=O)Nc2nccs2)cc1 [CBK086797] | 89.4%
O=C(COc1cccc2ccccc12)N/N=C/c1ccco1 [CBK086853] | 103%
CC(C)(C)c1nnc(NC(=O)c2ccc(F)cc2)s1 [CBK086855] | 89%
COc1cc2c(cc1OC)/C(=C(\C(=O)Nc1ccccc1)C(=O)N1CCCCC1)NC(C)(C)C2 [CBK087103] | 94.5%
Cc1cc(C)n(-c2nc3c(c(=O)[nH]c(=O)n3C)n2CCc2ccccc2)n1 [CBK087129] | 90.2%
O=C(O)CCNc1ccc(Br)cc1C(=O)O [CBK087259] | 96.9%
Nc1nc2ccccc2n1CCOc1ccc(Cl)cc1 [CBK087352] | 85.9%
COc1cccc(N2CCC(=O)N2)c1 [CBK087441] | 87%
O=C1CC(c2ccc3c(c2)OCO3)c2ccc3ccccc3c2N1 (centres unmarked) [CBK087469] | 95.8%

Compound | viability at 28.5 h, 10 µM
Cc1c(Br)c(C(F)(F)F)nn1CC(=O)Nc1cc(C(F)(F)F)ccc1Cl [CBK087518] | 92.5%
Cc1ccc(S(=O)(=O)Nc2ccccc2-c2nc3ccccc3c(=O)o2)cc1 [CBK087613] | 94.5%
O=C(O)CCC(NC(=O)c1ccc(I)cc1)C(=O)O (centres unmarked) [CBK087614] | 95.8%
Cc1c(C)n(Cc2ccccc2)c2ccc(C(=O)OCCCN(C)C)cc12 [CBK087693] | 91.7%
CCC(=O)NCCc1c[nH]c2ccc([N+](=O)[O-])cc12 [CBK088059] | 110%
Cc1c(NC(=O)c2ccccc2Cl)c(=O)n(-c2ccccc2)n1C [CBK088068] | 105%
O=c1[nH]c2ccccc2nc1-c1cc(Br)ccc1NCc1ccccc1 [CBK088071] | 106%
CC(C)Nc1nccnc1-c1ccc(CO)cc1 [CBK088519] | 90.1%
c1ccc(-c2nccnc2NCC2CC2)cc1 [CBK088539] | 88.4%
COCCNc1nccnc1-c1ccccc1 [CBK088555] | 105%
COCCNc1nccnc1-c1cnc(OC)nc1OC [CBK088558] | 109%
CCNc1nccnc1-c1cnc(OC)nc1OC [CBK088587] | 93.9%
CCNc1nccnc1-c1cccc(O)c1 [CBK088593] | 103%
COc1ccccc1-c1nccnc1NCc1cccs1 [CBK088682] | 88%
OCc1ccc(-c2nccnc2NCc2cccs2)cc1 [CBK088689] | 99.1%
C[C@H](Nc1nccnc1-c1ccsc1)c1ccccc1 [CBK088716] | 94.9%
CC(C)CNc1nccnc1-c1ccc2c(c1)OCO2 [CBK088730] | 98.4%
CC(C)CNc1nccnc1-c1ccc(Cl)cc1 [CBK088738] | 91.3%
Nc1nn2c(c1Cc1c(Cl)cccc1Cl)OCC2 [CBK088759] | 91.7%
CN1CCN(c2nccnc2-c2ccccc2)CC1 [CBK088825] | 88.7%
CCCNc1nccnc1-c1cccc(Cl)c1Cl [CBK088892] | 93.8%
CCCNc1nccnc1-c1cccc(CO)c1 [CBK088897] | 91.5%
Nc1c(Cc2c(Cl)cccc2Cl)c(=O)n2n1CCC2 [CBK088948] | 98.9%
Fc1ccc(-c2nccnc2NCc2ccncc2)cc1 [CBK088964] | 98.8%

Compound | viability at 28.5 h, 10 µM
COc1ccccc1-c1nccnc1NCCCO [CBK088971] | 98.8%
OCCCNc1nccnc1-c1cccc(F)c1 [CBK088976] | 98.5%
CC(C)[C@@H](CO)Nc1nccnc1-c1cccs1 [CBK089024] | 93.7%
COc1ccccc1-c1nccnc1N[C@@H](CO)C(C)C [CBK089034] | 93.6%
OCC1CCCN1c1nccnc1-c1ccoc1 (centres unmarked) [CBK089057] | 105%
OCC1CCCN1c1nccnc1-c1cccs1 (centres unmarked) [CBK089060] | 106%
CC(O)CNc1nccnc1-c1ccccc1 (centres unmarked) [CBK089257] | 95.7%
c1cncc(CNc2nccnc2-c2ccsc2)c1 [CBK089314] | 113%
Nc1c(Cc2c(Cl)cccc2Cl)c(=O)n2n1CCCC2 [CBK089337] | 95%
CCC1CCCCN1C(=O)c1cc(C)oc1C (centres unmarked) [CBK089358] | 105%
O=C(N1CCOCC1)C12CC3CC(CC(C3)C1)C2 [CBK089368] | 90.3%
CC(C)Nc1nccnc1Sc1cccs1 [CBK089490] | 123%
CC(C)Nc1cc(Sc2ccc(Br)cc2)ncn1 [CBK089502] | 103%
Nc1ccc(Sc2nccnc2N2CCCC2)cc1 [CBK089520] | 94.4%
COc1cccc(Sc2cc(N3CCCC3)ncn2)c1 [CBK089533] | 110%
c1ccc2c(Sc3cc(N4CCCC4)ncn3)cccc2c1 [CBK089538] | 94.2%
Fc1ccc(Sc2nc3ccccc3nc2N2CCCC2)cc1 [CBK089543] | 101%
CC(C)(C)OCc1[nH]nc(O)c1Cc1c(Cl)cccc1Cl [CBK089569] | 106%
CCCNCC(=O)N1CN(C(=O)c2ccc(C)cc2)C(C)(C)C1 [CBK089572C] | 111%
Cc1ccc(C(=O)N2CN(C(=O)CNC3CC3)CC2(C)C)cc1 [CBK089574C] | 98.4%
Nc1cccc(Sc2ccc(C(F)(F)F)cn2)c1 [CBK089606] | 107%
FC(F)(F)c1cccc(Sc2ccc(Cl)c(Cl)c2)n1 [CBK089608] | 91.2%
CCNc1cc2ccccc2c(-c2ccc(OC)c(C)c2)n1 [CBK089644] | 86%
CCc1nccnc1OC [CBK089673] | 101%

Compound | viability at 28.5 h, 10 µM
OCCNc1nccnc1Cl [CBK089793] | 114%
CC(C)(C)S(=O)(=O)Cc1noc(-c2ccc(Cl)nc2)n1 [CBK089825] | 98.9%
COC(=O)C(N)c1c[nH]c2ccccc12 (centres unmarked) [CBK089840] | 104%
COc1cc(-n2cnc3cc(-c4ccc(Cl)cc4)sc3c2=O)ccc1OCCN1CCCC1 [CBK089844C] | 40.7%
CNC(=O)c1cc2ncc(C(F)(F)F)cc2s1 [CBK089882] | 93.1%
NC(=O)c1sc2cc(C(F)(F)F)cnc2c1-c1cccs1 [CBK089891] | 88.2%
Cn1nc2c(c1O)CCCC2 [CBK089897] | 102%
CCOc1cc(/C=N/O)ccc1OC(=O)c1cccc([N+](=O)[O-])c1 [CBK090036] | 107%
Cc1ccc(C(C)(C)C)c(OC(=O)c2cnc(C)cn2)c1 [CBK090261] | 96.5%
N#CCc1ccc(OC(=O)c2cccnc2)cc1 [CBK090304] | 105%
Nc1nccnc1C(=O)Oc1ccccc1 [CBK090311] | 88.1%
O=C(Oc1ccccc1)c1cc(Cl)cnc1Cl [CBK090320] | 101%
Cc1ccc(OC(=O)c2cc(Cl)cnc2Cl)cc1 [CBK090321] | 84.5%
O=C(Oc1ccccc1)c1ccnc(Cl)c1 [CBK090322] | 87.2%
Nc1ncc(-c2ccc(C(F)(F)F)cc2)nc1-c1ccc(C(=O)N2CCOCC2)cc1 [CBK090524] | 103%
COc1cc(Nc2cc(-c3ccccc3N(C)C)ncn2)cc(OC)c1OC [CBK090702] | 64.2%
COc1cc(Nc2cc(-c3ccco3)ncn2)cc(OC)c1OC [CBK090706] | 90.3%
COc1cc(Nc2cc(-c3ccc(NC(C)=O)cc3)ncn2)cc(OC)c1OC [CBK090710] | 103%
CCOC(=O)Cc1ccc(Nc2cc(-c3ccc(N(C)C)cc3)ncn2)cc1 [CBK090712] | 31.6%
CC(=O)Nc1ccc(Nc2cc(-c3ccsc3)ncn2)cc1 [CBK090717] | 96.8%
CC(=O)Nc1ccc(Nc2cc(-c3ccc(Cl)cc3)ncn2)cc1 [CBK090720] | 93.6%
CC(=O)Nc1ccc(Nc2cc(-c3ccc(CC(C)C)cc3)ncn2)cc1 [CBK090723] | 99.4%
COc1cccc(Nc2cc(-c3cccc(N)c3)ncn2)c1OC [CBK090726] | 104%
COc1cccc(Nc2cc(-c3ccco3)ncn2)c1OC [CBK090727] | 92.2%

same assay, conditions: human, hela cells, % viability, bulk resorufin, single well

Compound | viability at 28.5 h, 10 µM
CN1C(=O)CC(c2ccccc2)Nc2ccccc21 (centres unmarked) [CBK086373C] | 103%
CNC(=O)c1nn(Cc2ccc(Cl)cc2)c2ccccc12 [CBK088451] | 87.6%
O=C(O)c1nn(Cc2ccc(Cl)c(Cl)c2)c2ccccc12 [CBK088455] | 91.2%
CCOC(=O)N1CCC2(CC1)Oc1ccc(Br)cc1O2 [CBK089365] | 80.9%
CC(=O)Nc1ccc(OC(=O)N2CCCCC2)cc1 [CBK090124] | 99.1%
